The supplement of paper PMC10307832

Compound: CO[C@@H]1[C@H](N(C)C(=O)c2ccccc2)C[C@H]2O[C@]1(C)n1c3ccccc3c3c4c(c5c6ccccc6n2c5c31)C(=O)NC4 [Midostaurin] + C[C@@H](Oc1cc(-c2cnn(C3CCNCC3)c2)cnc1N)c1c(Cl)ccc(F)c1Cl [Crizotinib] (partner 1 µM)
Test: relative viability (nuclei count vs DMSO), 5 days (fraction); higher = more cells survive
Details: first compound 0.1 µM
Outline: (§1)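 One day after seeding in 1536-well plates, lung cancer cell lines were dosed by pin tool. Dosing was either single-drug or a fixed anchor-drug dose plus five library-drug doses (not always all listed) in √10 steps. After 5 days, nuclei were stained in one fix-and-stain step and counted on 4× images, and relative viability is the nuclei count of treated wells over that of vehicle wells, given as the median of duplicate plates.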

Cell Line | relative viability
HCC-44 | 0.697
LU99A | 0.541
BEN | 1.17
HARA | 0.86
HCC-78 | 0.38
NCI-H322M | 0.912
LCLC-97TM1 | 0.205
NCI-H2009 | 0.996
A-427 | 0.735
NCI-H661 | 0.918
NCI-H1734 | 0.705
NCI-H460 | 0.898
NCI-H2347 | 0.802
SK-LU-1 | 0.914
201T | 1.01
NCI-H1915 | 0.979
HCC-827 | 0.858
LXF-289 | 0.764
NCI-H23 | 0.355
NCI-H647 | 0.832
CAL-12T | 0.646
NCI-H1651 | 0.918
EPLC-272H | 1.07
NCI-H2228 | 0.361
NCI-H1792 | 0.967
NCI-H1355 | 0.987
NCI-H3122 | 0.3
NCI-H1437 | 0.878
NCI-H1755 | 0.761

Same assay, conditions: first compound 0.3162 µM

Cell Line | relative viability
NCI-H2405 | 0.842
HOP-62 | 1.15
HCC-44 | 0.627
LU99A | 0.533
BEN | 0.935
HARA | 0.958
HCC-78 | 0.329
NCI-H322M | 0.905
LCLC-97TM1 | 0.304
NCI-H2009 | 1.06
A-427 | 0.707
NCI-H661 | 0.982
NCI-H1734 | 0.647
NCI-H460 | 0.787
NCI-H2347 | 0.808
SK-LU-1 | 0.584

Cell Line | relative viability
201T | 1.05
NCI-H1915 | 0.94
HCC-827 | 0.905
LXF-289 | 0.831
NCI-H23 | 0.41
NCI-H647 | 0.416
CAL-12T | 0.251
NCI-H1651 | 0.889
EPLC-272H | 0.926
NCI-H2228 | 0.509
NCI-H1792 | 1.02
NCI-H1355 | 1
NCI-H3122 | 0.331
NCI-H1437 | 1
NCI-H1755 | 0.484

Compound: CO[C@@H]1[C@H](N(C)C(=O)c2ccccc2)C[C@H]2O[C@]1(C)n1c3ccccc3c3c4c(c5c6ccccc6n2c5c31)C(=O)NC4 [Midostaurin] + CC(=O)c1c(C)c2cnc(Nc3ccc(N4CCNCC4)cn3)nc2n(C2CCCC2)c1=O [Palbociclib] (partner 0.5 µM)
Test: as above
Details: first compound 0.01 µM
Outline: as §1

Cell Line | relative viability
NCI-H2405 | 0.534
HOP-62 | 0.452
HCC-44 | 1.01
LU99A | 0.386
BEN | 0.515
HARA | 0.316
HCC-78 | 0.536
NCI-H322M | 0.475
LCLC-97TM1 | 0.276
NCI-H2009 | 0.175
A-427 | 0.486
NCI-H661 | 0.399
NCI-H1734 | 0.334
NCI-H460 | 0.13
NCI-H2347 | 0.442
SK-LU-1 | 0.404

Cell Line | relative viability
201T | 0.366
NCI-H1915 | 0.451
HCC-827 | 0.423
LXF-289 | 0.625
NCI-H23 | 0.49
NCI-H647 | 0.462
CAL-12T | 0.513
NCI-H1651 | 0.518
EPLC-272H | 0.291
NCI-H2228 | 0.569
NCI-H1792 | 0.593
NCI-H1355 | 0.409
NCI-H3122 | 0.156
NCI-H1437 | 0.353
NCI-H1755 | 0.482

Same assay, conditions: first compound 0.03162 µM

Cell Line | relative viability
NCI-H2405 | 0.575
HOP-62 | 0.48
HCC-44 | 1.02
LU99A | 0.513
BEN | 0.473
HARA | 0.283
HCC-78 | 0.474
NCI-H322M | 0.483
LCLC-97TM1 | 0.233
NCI-H2009 | 0.192
A-427 | 0.566
NCI-H661 | 0.41
NCI-H1734 | 0.38
NCI-H460 | 0.195
NCI-H2347 | 0.449
SK-LU-1 | 0.409

Cell Line | relative viability
201T | 0.368
NCI-H1915 | 0.523
HCC-827 | 0.521
LXF-289 | 0.615
NCI-H23 | 0.506
NCI-H647 | 0.396
CAL-12T | 0.492
NCI-H1651 | 0.52
EPLC-272H | 0.355
NCI-H2228 | 0.954
NCI-H1792 | 0.709
NCI-H1355 | 0.429
NCI-H3122 | 0.241
NCI-H1437 | 0.326
NCI-H1755 | 0.433

Same assay, conditions: first compound 0.1 µM

Cell Line | relative viability
NCI-H2405 | 0.521
HOP-62 | 0.455
HCC-44 | 0.942
LU99A | 0.371
BEN | 0.52
HARA | 0.278
HCC-78 | 0.474
NCI-H322M | 0.528
LCLC-97TM1 | 0.251
NCI-H2009 | 0.287
A-427 | 0.513
NCI-H661 | 0.438
NCI-H1734 | 0.373
NCI-H460 | 0.183
NCI-H2347 | 0.395
SK-LU-1 | 0.379

Cell Line | relative viability
201T | 0.35
NCI-H1915 | 0.531
HCC-827 | 0.503
LXF-289 | 0.645
NCI-H23 | 0.377
NCI-H647 | 0.485
CAL-12T | 0.405
NCI-H1651 | 0.525
EPLC-272H | 0.302
NCI-H2228 | 0.842
NCI-H1792 | 0.635
NCI-H1355 | 0.443
NCI-H3122 | 0.197
NCI-H1437 | 0.34
NCI-H1755 | 0.429

Same assay, conditions: first compound 0.3162 µM

Cell Line | relative viability
NCI-H2405 | 0.51
HOP-62 | 0.501
HCC-44 | 0.99
LU99A | 0.386
BEN | 0.467
HARA | 0.242
HCC-78 | 0.469
NCI-H322M | 0.559
LCLC-97TM1 | 0.244
NCI-H2009 | 0.404
A-427 | 0.508
NCI-H661 | 0.469
NCI-H1734 | 0.351
NCI-H460 | 0.0929
NCI-H2347 | 0.404
SK-LU-1 | 0.399

Cell Line | relative viability
201T | 0.406
NCI-H1915 | 0.524
HCC-827 | 0.506
LXF-289 | 0.642
NCI-H23 | 0.309
NCI-H647 | 0.465
CAL-12T | 0.308
NCI-H1651 | 0.53
EPLC-272H | 0.3
NCI-H2228 | 0.845
NCI-H1792 | 0.634
NCI-H1355 | 0.468
NCI-H3122 | 0.229
NCI-H1437 | 0.367
NCI-H1755 | 0.383

Compound: CO[C@@H]1[C@H](N(C)C(=O)c2ccccc2)C[C@H]2O[C@]1(C)n1c3ccccc3c3c4c(c5c6ccccc6n2c5c31)C(=O)NC4 [Midostaurin] + COc1cccc2cc(-c3nc([C@H]4CC[C@H](C(=O)O)CC4)n4ncnc(N)c34)[nH]c12 [OSI-027] (partner 0.5 µM)
Test: as above
Details: first compound 0.01 µM
Outline: as §1

Cell Line | relative viability
NCI-H2405 | 0.65
HOP-62 | 0.779
LU99A | 0.279
BEN | 0.324
HARA | 0.672
HCC-78 | 0.432
NCI-H322M | 0.633
LCLC-97TM1 | 0.439
NCI-H2009 | 0.542
A-427 | 0.449
NCI-H661 | 0.74
NCI-H1734 | 0.57
NCI-H460 | 0.513
NCI-H2347 | 0.453
SK-LU-1 | 0.347
201T | 0.725
NCI-H1915 | 0.623
HCC-827 | 0.719
LXF-289 | 0.819
NCI-H23 | 0.562
NCI-H647 | 0.637
CAL-12T | 0.779
NCI-H1651 | 0.707
EPLC-272H | 0.301
NCI-H2228 | 0.652
NCI-H1792 | 0.664
NCI-H1355 | 0.431
NCI-H3122 | 0.932
NCI-H1437 | 0.816
NCI-H1755 | 0.74

Same assay, conditions: first compound 0.03162 µM

Cell Line | relative viability
NCI-H2405 | 0.6
HOP-62 | 0.754
HCC-44 | 0.501
LU99A | 0.309
BEN | 0.273
HARA | 0.4
HCC-78 | 0.332
NCI-H322M | 0.489
LCLC-97TM1 | 0.404
NCI-H2009 | 0.522
A-427 | 0.467
NCI-H661 | 0.638
NCI-H1734 | 0.589
NCI-H460 | 0.62
NCI-H2347 | 0.35
SK-LU-1 | 0.333
201T | 0.787
NCI-H1915 | 0.555
HCC-827 | 0.708
LXF-289 | 0.864
NCI-H23 | 0.592
NCI-H647 | 0.652
CAL-12T | 0.475
NCI-H1651 | 0.78
NCI-H2228 | 0.603
NCI-H1792 | 0.8
NCI-H1355 | 0.425
NCI-H3122 | 0.492
NCI-H1437 | 0.895
NCI-H1755 | 0.677

Same assay, conditions: first compound 0.1 µM

Cell Line | relative viability
NCI-H2405 | 0.525
HOP-62 | 0.947
HCC-44 | 0.529
LU99A | 0.258
BEN | 0.267
HARA | 0.516
HCC-78 | 0.381
NCI-H322M | 0.595
LCLC-97TM1 | 0.434
NCI-H2009 | 0.453
A-427 | 0.434
NCI-H661 | 0.719
NCI-H1734 | 0.632
NCI-H460 | 0.722
NCI-H2347 | 0.365
SK-LU-1 | 0.321

Cell Line | relative viability
201T | 0.751
NCI-H1915 | 0.568
HCC-827 | 0.821
LXF-289 | 0.842
NCI-H23 | 0.524
NCI-H647 | 0.779
CAL-12T | 0.531
NCI-H1651 | 0.713
EPLC-272H | 0.289
NCI-H2228 | 0.687
NCI-H1792 | 0.659
NCI-H1355 | 0.39
NCI-H3122 | 1.06
NCI-H1437 | 0.853
NCI-H1755 | 0.678

Same assay, conditions: first compound 0.3162 µM

Cell Line | relative viability
NCI-H2405 | 0.633
HOP-62 | 0.686
HCC-44 | 0.401
LU99A | 0.277
BEN | 0.32
HARA | 0.757
HCC-78 | 0.299
NCI-H322M | 0.569
LCLC-97TM1 | 0.557
NCI-H2009 | 0.426
A-427 | 0.512
NCI-H661 | 0.607
NCI-H1734 | 0.552
NCI-H460 | 0.665
NCI-H2347 | 0.38
SK-LU-1 | 0.271

Cell Line | relative viability
201T | 0.818
NCI-H1915 | 0.597
HCC-827 | 0.8
LXF-289 | 0.743
NCI-H23 | 0.513
NCI-H647 | 0.753
CAL-12T | 0.307
NCI-H1651 | 0.864
EPLC-272H | 0.305
NCI-H2228 | 0.703
NCI-H1792 | 0.617
NCI-H1355 | 0.492
NCI-H3122 | 1.41
NCI-H1437 | 0.933
NCI-H1755 | 0.483
